For one compound, IFNγ production results are on record in patent publication US20130164325A1, “CERAMIDE-LIKE GLYCOLIPID-ASSOCIATED BACTERIAL VACCINES AND USES THEREOF” (Albert Einstein College of Medicine of Yeshiva University, priority 2010, published 2013).

The structures appear in SMILES notation.

This experiment concerns mouse splenocytes. As to the kind of experiment: Activation of mouse splenocytes with glycolipid-treated BMDCs, IFNγ production. The class given is cell-based. To be noted: free glycolipid, compared to vehicle control (FIG. 5B).

Take `CCCCCCCCCCCCCCCCCCCCCCCCCC(=O)N[C@@H](CO[C@H]1O[C@H](CO)[C@H](O)[C@H](O)[C@H]1O)[C@H](O)[C@H](O)CCCCCCCCCCCCCC` [KRN7000, (2S,3S,4R)-1-O-(α-D-galactopyranosyl)-N-hexacosanoyl-2-amino-1,3,4-octadecanetriol]: the IFNγ production result is reported as “induced IFNγ production”.
